From patent US20140162285A1, “Methods of Modulating Vesicular Trafficking” (The General Hospital Corporation, priority 2009, published 2014)
Peptide text beside a SMILES is read from it. * marks the point of attachment. Biotin = O=C1N[C@H]2[C@H](CS[C@H]2CCCCC(=O)*)N1

What was measured:
GST-ARNO(wt) = molecular target: T1, GST-ARNO(wt) (Homo sapiens, UniProt Q99418); test: a2N-derived peptide pull-down assay with GST-ARNO(wt); format: binding; parameters: key to interaction with ARNO (asterisk mark in Table 1): The interacting peptides are indicated in bold with an asterisk (*)
T1 construct: i) 1-400aa, full length ARNO(wt); made in house; host or cells: E. coli BL21(DE3)
T1 sequence (Q99418 1-400): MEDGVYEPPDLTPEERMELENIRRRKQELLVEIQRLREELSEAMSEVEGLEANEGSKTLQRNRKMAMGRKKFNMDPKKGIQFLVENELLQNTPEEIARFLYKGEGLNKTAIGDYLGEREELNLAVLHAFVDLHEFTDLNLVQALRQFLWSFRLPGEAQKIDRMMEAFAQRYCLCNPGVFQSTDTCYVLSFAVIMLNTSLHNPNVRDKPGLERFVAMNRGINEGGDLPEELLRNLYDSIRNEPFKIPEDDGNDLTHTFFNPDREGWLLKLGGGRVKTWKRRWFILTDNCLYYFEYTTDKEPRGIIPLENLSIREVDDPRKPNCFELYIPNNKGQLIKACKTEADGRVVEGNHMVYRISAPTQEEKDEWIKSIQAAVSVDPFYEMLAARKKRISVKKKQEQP
Protocol: FIG. 2A is an image of a Western blot showing the results of an a2N-derived peptide pull-down assay. The indicated a2N-derived peptides were immobilized on streptavidin-beads and incubated with purified recombinant GST-ARNO(wt). Interacting complexes were eluted and analyzed by Western blotting using monoclonal anti-GST antibodies.
FIG. 2B is an image of a Western blot showing the results of a pull-down assay with selected a2N-derived interacting peptides incubated with either GST (negative control) or GST-ARNO(wt). The first two lanes show the patterns obtained when either GST-only (lane 1) or GST-ARNO(wt) (lane 2) were loaded onto the gel.
Peptides were synthesized, purified by HPLC and analyzed by mass spectrometry in the MGH Peptide/Protein Core Facility. All a2N-derived peptides were synthesized with a biotin-tag on the N-terminus for immobilization on streptavidin-agarose beads and with an additional C-terminal cysteine residue for immobilization on beads using sulfhydryl-specific crosslinkers. A peptide corresponding to the PB-domain of ARNO was synthesized containing either a non-phosphorylated or a phosphorylated Ser392 residue. Peptide stock solutions were prepared in DMSO at 5 mM concentration and stored at −20° C. […]

PB-domain of ARNO = molecular target: T2, PB-domain of ARNO (Homo sapiens, UniProt Q99418); test: a2N-derived peptide pull-down with GST-PB domain; format: binding
T2 construct: v) 379-400aa, polybasic (PB) domain; made in house; host or cells: E. coli BL21(DE3)
Protocol: FIGS. 5A-C are a set of three images of Western blots showing the identification of interaction motif of a2N that is involved in specific binding with the Sec7 domain of ARNO. 5A, The catalytic Sec7 domain of ARNO interacts with two a2N-derived peptides, a2N-01 and a2N-03, in pull-down experiments. The peptide pull-down assay was performed with six a2N-derived interaction peptides immobilized on streptavidin-beads and incubated with purified recombinant GST-only or GST-Sec7 domain. Interacting complexes were eluted and analyzed by Western blotting using monoclonal anti-GST antibodies as described below. The loading controls for GST-only (lane 1) or GST-Sec7 (lane 2) are shown. […] The peptide pull-down assay was performed with peptides a2N-01 and a2N-03 immobilized on streptavidin-beads and incubated with purified recombinant GST-PH domain (5B) or GST-PB domain (5C). Interacting complexes were eluted and analyzed by Western blotting using monoclonal anti-GST antibodies. […]
These a2N-derived peptides were immobilized by an N-terminal biotin-tag, which ensured the same efficiency and equivalent binding to streptavidin-agarose beads. […] After washing beads four times in ice-cold binding buffer, the interacting complexes were eluted by boiling in SDS-PAGE sample buffer for 10 min at 95° C., resolved by SDS-PAGE and analyzed by Western blotting using monoclonal anti-GST antibody. […]

interaction of a2N-derived peptide with GST-ARNO(wt) in pull-down (GST-ARNO(wt); Western blot anti-GST, GST-only as control): specific interaction | interaction with ARNO (asterisk mark in Table 1) (GST-ARNO(wt); biotin-tagged peptides on streptavidin beads): Bio-MGSLFRSE SMCLAQLFL-Cys * | interaction with PB-domain of ARNO (PB-domain of ARNO): does not interact
Structure (SMILES): CSCC[C@H](NC(=O)CCCC[C@@H]1SC[C@@H]2NC(=O)N[C@@H]21)C(=O)NCC(=O)N[C@@H](CO)C(=O)N[C@@H](CC(C)C)C(=O)N[C@@H](Cc1ccccc1)C(=O)N[C@@H](CCCNC(=N)N)C(=O)N[C@@H](CO)C(=O)N[C@@H](CCC(=O)O)C(=O)N[C@@H](CO)C(=O)N[C@@H](CCSC)C(=O)N[C@@H](CS)C(=O)N[C@@H](CC(C)C)C(=O)N[C@@H](C)C(=O)N[C@@H](CCC(N)=O)C(=O)N[C@@H](CC(C)C)C(=O)N[C@@H](Cc1ccccc1)C(=O)N[C@@H](CC(C)C)C(=O)N[C@@H](CS)C(=O)O [a2N-01, Bio-MGSLFRSE SMCLAQLFL-Cys] (Biotin-MGSLFRSESMCLAQLFLC-OH; N-terminus and C-terminus assumed)
